Here are results for 21 compounds from ChEMBL document CHEMBL1137615, “Discovery of orally efficacious tetracyclic metabotropic glutamate receptor 1 (mGluR1) antagonists for the treatment of chronic pain” (J Med Chem, 2007).

Series [1] can be described thus: Tmax in rat at 10 mg/kg, po by CARRS. The class given is ADME, organism-based. Set-up: dose 10 mg/kg, route oral. Conditions: in vivo.
The nature of series [2]: AUC (0 to 6 hrs) in rat at 10 mg/kg, po by CARRS. The class given is ADME, organism-based. Set-up: time < 6 hr, dose 10 mg/kg, route oral. Conditions: plasma.
Series [3] addresses Metabotropic glutamate receptor 1 (Rattus norvegicus, UniProt P23385). In words: Displacement of [3H]9-Dimethylamino-3-(4-methoxy-phenyl)-3H-pyrido[3',2':4,5]thieno[3,2-d]pyrimidin-4-one from mGluR1 in rat cerebellum membrane. The class given is cell membranes. A general note: Displacement assays read how much labelled ligand stays bound in the presence of the test substance.

Series [4] can be described thus: Cmax in rat at 10 mg/kg, po by CARRS. It counts as ADME, organism-based. Conditions: in vivo. Set-up: dose 10 mg/kg, route oral.
The target in series [5] is T1, Metabotropic glutamate receptor 5 (Homo sapiens, UniProt P41594). Description: Displacement of radioligand from human mGluR5b expressed in HEK293 cells at 1 uM. It counts as cell-based.
Target sequence in this assay (P41594 21-1212 limits assumed): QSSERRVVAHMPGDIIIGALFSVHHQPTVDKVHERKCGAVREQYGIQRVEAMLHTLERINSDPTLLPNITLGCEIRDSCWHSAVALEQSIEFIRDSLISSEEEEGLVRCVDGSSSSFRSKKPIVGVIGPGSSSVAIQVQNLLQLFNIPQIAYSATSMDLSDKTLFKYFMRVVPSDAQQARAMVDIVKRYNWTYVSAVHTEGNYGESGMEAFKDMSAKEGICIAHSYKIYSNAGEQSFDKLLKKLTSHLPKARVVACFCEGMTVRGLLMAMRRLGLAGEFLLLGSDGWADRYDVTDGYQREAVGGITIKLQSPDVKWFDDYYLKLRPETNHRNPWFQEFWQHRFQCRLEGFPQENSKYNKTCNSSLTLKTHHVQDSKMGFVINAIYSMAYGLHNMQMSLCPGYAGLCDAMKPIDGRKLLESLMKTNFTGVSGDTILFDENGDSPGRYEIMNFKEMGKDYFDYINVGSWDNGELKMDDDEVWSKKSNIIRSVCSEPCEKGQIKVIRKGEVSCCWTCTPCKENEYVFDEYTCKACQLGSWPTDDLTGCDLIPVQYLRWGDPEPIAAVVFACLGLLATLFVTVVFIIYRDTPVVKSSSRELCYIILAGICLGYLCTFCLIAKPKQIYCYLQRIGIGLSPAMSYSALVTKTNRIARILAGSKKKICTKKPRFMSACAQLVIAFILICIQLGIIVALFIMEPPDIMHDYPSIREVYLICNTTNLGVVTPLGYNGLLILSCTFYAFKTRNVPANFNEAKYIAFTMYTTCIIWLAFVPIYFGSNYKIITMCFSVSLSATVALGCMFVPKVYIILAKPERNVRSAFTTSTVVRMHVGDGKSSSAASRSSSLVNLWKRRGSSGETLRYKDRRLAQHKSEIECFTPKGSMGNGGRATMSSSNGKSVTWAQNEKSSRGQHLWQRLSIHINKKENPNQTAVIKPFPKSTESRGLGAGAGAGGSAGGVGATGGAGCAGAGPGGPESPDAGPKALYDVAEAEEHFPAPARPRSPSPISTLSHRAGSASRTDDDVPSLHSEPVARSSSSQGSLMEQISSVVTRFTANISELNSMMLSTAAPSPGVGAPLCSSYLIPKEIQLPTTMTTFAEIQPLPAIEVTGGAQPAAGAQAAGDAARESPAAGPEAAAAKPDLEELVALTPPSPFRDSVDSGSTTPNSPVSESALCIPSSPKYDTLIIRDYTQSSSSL
Series [6] addresses T1, Metabotropic glutamate receptor 5. Description: Antagonist activity at human mGluR5b expressed in HEK293 cells assessed by measuring intracellular calcium by FLIPR assay. The class given is functional, cell-based. Background: Calcium assays in cells follow changes in intracellular calcium, usually with a dye or a luminescent sensor.
Target sequence in this assay (P41594 whole entry): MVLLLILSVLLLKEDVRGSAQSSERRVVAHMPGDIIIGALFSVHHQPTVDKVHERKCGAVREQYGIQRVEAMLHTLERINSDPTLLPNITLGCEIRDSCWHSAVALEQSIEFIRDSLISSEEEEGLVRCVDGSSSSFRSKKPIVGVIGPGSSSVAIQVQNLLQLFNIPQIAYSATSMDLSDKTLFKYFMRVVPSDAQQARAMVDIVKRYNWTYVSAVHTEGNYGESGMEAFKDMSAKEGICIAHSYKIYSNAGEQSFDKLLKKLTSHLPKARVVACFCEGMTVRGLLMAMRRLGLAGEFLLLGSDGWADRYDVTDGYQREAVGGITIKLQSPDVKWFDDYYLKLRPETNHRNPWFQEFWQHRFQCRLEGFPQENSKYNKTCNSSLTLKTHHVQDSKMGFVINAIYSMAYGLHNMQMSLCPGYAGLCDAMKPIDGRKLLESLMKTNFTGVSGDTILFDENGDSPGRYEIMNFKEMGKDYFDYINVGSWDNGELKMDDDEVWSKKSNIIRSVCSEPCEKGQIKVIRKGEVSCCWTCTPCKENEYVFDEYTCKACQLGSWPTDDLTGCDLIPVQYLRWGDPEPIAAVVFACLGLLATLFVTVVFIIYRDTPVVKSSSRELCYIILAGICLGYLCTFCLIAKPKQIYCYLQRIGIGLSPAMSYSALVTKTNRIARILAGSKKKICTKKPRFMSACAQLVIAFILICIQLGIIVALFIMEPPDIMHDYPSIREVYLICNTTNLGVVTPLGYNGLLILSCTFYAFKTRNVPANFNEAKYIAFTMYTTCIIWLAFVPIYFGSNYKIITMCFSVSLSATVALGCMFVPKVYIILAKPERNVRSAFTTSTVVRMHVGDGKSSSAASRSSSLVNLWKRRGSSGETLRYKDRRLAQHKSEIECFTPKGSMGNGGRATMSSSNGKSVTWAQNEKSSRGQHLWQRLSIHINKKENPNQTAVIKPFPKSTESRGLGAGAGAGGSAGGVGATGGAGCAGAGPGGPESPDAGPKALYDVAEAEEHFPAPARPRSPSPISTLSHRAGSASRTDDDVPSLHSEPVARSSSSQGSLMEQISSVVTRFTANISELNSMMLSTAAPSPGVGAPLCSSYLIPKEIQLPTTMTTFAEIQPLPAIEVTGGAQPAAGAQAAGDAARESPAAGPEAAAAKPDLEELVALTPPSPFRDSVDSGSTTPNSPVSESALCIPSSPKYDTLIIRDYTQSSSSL
For series [7], the target named is Metabotropic glutamate receptor 1 (Homo sapiens, UniProt Q13255). Description: Antagonist activity at human mGluR1a expressed in CHO cells assessed by measuring intracellular calcium by FLIPR assay. It counts as functional, cell-based.
Chain of Metabotropic glutamate receptor 1 (Homo sapiens, UniProt Q13255) (Q13255 whole entry): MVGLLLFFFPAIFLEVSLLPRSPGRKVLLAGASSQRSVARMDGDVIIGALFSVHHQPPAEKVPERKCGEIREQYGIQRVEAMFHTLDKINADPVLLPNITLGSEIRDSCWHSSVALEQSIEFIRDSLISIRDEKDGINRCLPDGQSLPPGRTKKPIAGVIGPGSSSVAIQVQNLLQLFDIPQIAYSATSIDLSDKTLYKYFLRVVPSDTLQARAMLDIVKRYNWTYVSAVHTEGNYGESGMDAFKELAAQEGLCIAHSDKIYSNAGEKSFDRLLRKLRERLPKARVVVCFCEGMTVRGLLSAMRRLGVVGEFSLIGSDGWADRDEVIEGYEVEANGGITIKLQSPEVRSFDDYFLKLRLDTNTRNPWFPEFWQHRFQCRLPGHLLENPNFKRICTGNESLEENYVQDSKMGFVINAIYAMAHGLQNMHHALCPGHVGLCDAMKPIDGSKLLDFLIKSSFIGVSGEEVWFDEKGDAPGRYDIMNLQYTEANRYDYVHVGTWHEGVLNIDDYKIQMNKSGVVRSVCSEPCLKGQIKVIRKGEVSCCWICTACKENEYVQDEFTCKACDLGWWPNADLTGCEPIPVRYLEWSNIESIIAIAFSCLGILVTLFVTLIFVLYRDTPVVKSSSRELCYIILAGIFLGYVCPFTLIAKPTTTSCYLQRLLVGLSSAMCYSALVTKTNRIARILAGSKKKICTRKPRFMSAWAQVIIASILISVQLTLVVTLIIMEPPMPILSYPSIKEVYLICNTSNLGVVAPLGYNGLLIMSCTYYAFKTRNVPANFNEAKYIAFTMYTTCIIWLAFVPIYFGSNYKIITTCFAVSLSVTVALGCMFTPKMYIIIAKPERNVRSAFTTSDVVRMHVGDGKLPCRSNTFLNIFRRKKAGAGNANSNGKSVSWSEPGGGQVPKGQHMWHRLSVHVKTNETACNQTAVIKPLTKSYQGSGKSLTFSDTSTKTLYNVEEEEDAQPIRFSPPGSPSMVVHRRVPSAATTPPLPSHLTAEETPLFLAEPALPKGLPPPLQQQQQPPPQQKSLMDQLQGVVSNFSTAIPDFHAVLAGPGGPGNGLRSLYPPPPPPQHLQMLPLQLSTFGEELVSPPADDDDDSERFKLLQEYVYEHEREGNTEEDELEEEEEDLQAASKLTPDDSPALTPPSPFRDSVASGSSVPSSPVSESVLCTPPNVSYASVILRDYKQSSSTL
Series [8] concerns Rattus norvegicus. Description: Effect on neuropathic pain in SNL rat model assessed as paw withdrawal threshold at 10 mg/kg, po. The class given is functional.
In series [9] the test system is Rattus norvegicus. In words: Effect on neuropathic pain in orally dosed SNL rat model. The class given is functional. Conditions: po.
Series [10] relates to Rattus norvegicus. In words: Inhibition of neuropathic pain in SNL rat model at 10 mg/kg, po. The class given is functional.

Chain of Metabotropic glutamate receptor 1 (Rattus norvegicus, UniProt P23385) (P23385 whole entry): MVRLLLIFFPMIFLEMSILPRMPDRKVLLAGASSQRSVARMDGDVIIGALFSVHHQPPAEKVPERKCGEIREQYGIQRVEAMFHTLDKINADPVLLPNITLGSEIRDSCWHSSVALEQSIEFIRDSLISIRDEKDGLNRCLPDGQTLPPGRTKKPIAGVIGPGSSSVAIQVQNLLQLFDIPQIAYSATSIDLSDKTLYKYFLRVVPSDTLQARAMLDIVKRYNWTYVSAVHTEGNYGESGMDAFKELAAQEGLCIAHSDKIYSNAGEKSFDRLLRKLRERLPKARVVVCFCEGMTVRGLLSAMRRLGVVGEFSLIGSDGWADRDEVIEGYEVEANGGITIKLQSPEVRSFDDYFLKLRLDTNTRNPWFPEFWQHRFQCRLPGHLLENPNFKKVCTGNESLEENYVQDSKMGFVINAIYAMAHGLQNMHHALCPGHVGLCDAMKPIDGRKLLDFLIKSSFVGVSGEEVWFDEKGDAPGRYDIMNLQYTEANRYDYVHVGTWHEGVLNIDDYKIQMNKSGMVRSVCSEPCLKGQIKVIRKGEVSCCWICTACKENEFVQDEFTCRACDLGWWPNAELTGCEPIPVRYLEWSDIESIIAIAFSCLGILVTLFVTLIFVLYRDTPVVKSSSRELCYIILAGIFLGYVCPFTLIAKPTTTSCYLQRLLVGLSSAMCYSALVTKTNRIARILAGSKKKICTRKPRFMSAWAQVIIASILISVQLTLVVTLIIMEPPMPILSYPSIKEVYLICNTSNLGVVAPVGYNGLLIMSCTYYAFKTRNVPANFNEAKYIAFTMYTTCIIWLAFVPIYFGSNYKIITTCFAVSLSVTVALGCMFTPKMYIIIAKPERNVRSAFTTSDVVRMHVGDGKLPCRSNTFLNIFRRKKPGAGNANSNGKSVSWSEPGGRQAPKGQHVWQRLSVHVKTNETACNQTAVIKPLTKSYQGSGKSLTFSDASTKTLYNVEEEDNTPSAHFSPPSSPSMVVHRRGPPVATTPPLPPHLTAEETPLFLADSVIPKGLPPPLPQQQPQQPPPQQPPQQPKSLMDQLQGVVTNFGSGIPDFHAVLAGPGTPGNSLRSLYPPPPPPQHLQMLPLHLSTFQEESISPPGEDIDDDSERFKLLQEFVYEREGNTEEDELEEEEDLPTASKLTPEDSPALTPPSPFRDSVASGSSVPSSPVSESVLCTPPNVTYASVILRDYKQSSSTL

One may read the Tmax as the time at which the peak concentration occurs. Broadly, the AUC(0-t) is the area under the concentration-time curve up to a stated or last time point. The low end stands for less exposure, the high end for more exposure. As usually defined, the Ki is a measure of affinity in units of concentration, obtained from inhibition or displacement. Usually Cmax stands for the highest concentration seen after dosing. For the compound `O=c1c2sc3ncc4cc[nH]c4c3c2ncn1-c1ccc(Cl)cc1`, the time to peak (Tmax) in [1] was determined as 0.5 h. In series [2], this compound registered an AUC(0-t) at 6 h of 0.018 µM·h. For the same compound, the inhibitory constant (Ki) in series [3] worked out at 2.4 nM. Moreover, in [4], the peak level (Cmax) was 37 nM. The Activity in [5] came to 1.7%.

For orientation: IC50 means the midpoint of a concentration-inhibition curve. In the case of `C[C@@H]1COc2cnc3sc4c(=O)n(-c5ccc(Cl)cc5)cnc4c3c2N1`, the IC50 in series [6] was greater than 1000 nM; in series [7], 24.4 nM. Further, the Ki in [3] was 9.1 nM.

On to `Cc1ccc(-n2cnc3c(sc4ncc5c(c43)NC[C@@H](C)O5)c2=O)cc1`, for which the IC50 in [6] worked out at 609 nM. In series [3], the Ki was 0.6 nM.

Regarding `CNc1c(Br)cnc2sc3c(=O)n(-c4ccc(Cl)cc4)cnc3c12`, in series [7], the IC50 turned out to be 5.9 nM.

On to `C[C@H]1COc2cnc3sc4c(=O)n(-c5ccc(Cl)cc5)cnc4c3c2N1`, for which, in series [6], the IC50 is greater than 1000 nM. In addition, the Ki in series [3] was 0.5 nM.

Take `Cc1ccc(-n2cnc3c(sc4ncc5sc(=O)[nH]c5c43)c2=O)cc1`: the IC50 in series [7] worked out at 446 nM. In series [3], this compound gave an inhibitory constant (Ki) of 1000 nM. In addition, the Activity in series [5] is -8%.

As to `CSc1nc2c(cnc3sc4c(=O)n(-c5ccc(C)cc5)cnc4c32)s1`, in [7], the IC50 came to 636 nM. For the same compound, the Ki in series [3] came to 788 nM. Also, in [5], the Activity is -2%.

With `Cc1ccc(-n2cnc3c(sc4ncc5cn[nH]c5c43)c2=O)cc1`, the 50% inhibitory concentration (IC50) in [7] amounted to 16.8 nM. The affinity in series [3], expressed as Ki, was 17.8 nM. Further, the Activity in [5] is 5%.

The term ED50 denotes the midpoint of the dose-response relation. In the case of `O=c1c2sc3ncc4c(c3c2ncn1-c1ccc(Cl)cc1)NCCO4`, the half-maximal inhibitory concentration (IC50) in [6] was greater than 1000 nM. Also, in the series on Rattus norvegicus [8], the Activity came to 11.8 g. For the same compound, the Tmax in series [1] amounted to 1 h. This compound yielded a 50% effective dose (ED50) with Rattus norvegicus [9] of 5.1 mg/kg. The same compound came in with an AUC(0-t) at 6 h in [2] of 0.366 µM·h. Also, the MPE with Rattus norvegicus [10] was 73%. In [3], this compound registered a Ki of 0.4 nM. The same compound displayed a Cmax in [4] of 198 nM.

In the case of `COc1ccc(-n2cnc3c(sc4nccc(N(C)C)c43)c2=O)cc1`, the half-inhibitory concentration (IC50) in [6] was determined as 10000 nM; in series [7] it was 9.5 nM. Besides, the Activity in the series with Rattus norvegicus [8] amounted to 13.2 g. The Tmax in series [1] is 0.5 h. In series [2], this compound came in with an AUC(0-t) at 6 h of 1.93 µM·h. In the series on Rattus norvegicus [10], this compound gave an MPE of 87%. In series [3], this compound had an inhibition constant Ki of 7.9 nM. The same compound registered a Cmax in series [4] of 564 nM.

Consider `O=c1c2sc3ncc4nc[nH]c4c3c2ncn1-c1ccc(Cl)cc1`, for which the affinity in series [3], expressed as Ki, was 10.8 nM. In addition, the Activity in series [5] is -1.7%.

On to `Cc1ccc(-n2cnc3c(sc4ncc5c(c43)NCCO5)c2=O)cc1`, for which, in series [6], the half-inhibitory concentration (IC50) was found to be 702 nM. In series [1], the Tmax came to 1 h. Moreover, the area under the curve AUC(0-t) at 6 h in [2] was 0.077 µM·h. In addition, the Ki in [3] was 0.5 nM. Moreover, in series [4], the peak level (Cmax) was 70 nM.

For `Cc1ccc(-n2cnc3c(sc4ncc5cc[nH]c5c43)c2=O)cc1`, the IC50 in [6] was greater than 1000 nM. In addition, the Tmax in series [1] worked out at 0.5 h. Besides, the AUC(0-t) at 6 h in series [2] came out at 0.035 µM·h. The compound further showed an inhibitory constant (Ki) in [3] of 16.9 nM. Further, the highest concentration (Cmax) in series [4] came to 71 nM.

In the case of `Cn1cnc2cnc3sc4c(=O)n(-c5ccc(Cl)cc5)cnc4c3c21`, the Ki in series [3] came to 104 nM. Moreover, the Activity in series [5] was 0.15%.

As to `COc1ccc(-n2cnc3c(sc4ncc5c(c43)NCCO5)c2=O)cc1`, in [6], the half-maximal inhibitory concentration (IC50) was greater than 1000 nM. In the series with Rattus norvegicus [8], the Activity was found to be 8.5 g. Also, the time of peak concentration (Tmax) in series [1] was 2 h. Moreover, the ED50 in the series with Rattus norvegicus [9] came out at 8 mg/kg. Besides, in series [2], the area under the curve AUC(0-t) at 6 h was determined as 1.56 µM·h. In addition, in the series with Rattus norvegicus [10], the MPE amounted to 50%. Moreover, the Ki in [3] turned out to be 1 nM. Moreover, the Cmax in series [4] came out at 467 nM.

Take `COc1ccc(-n2cnc3c(sc4ncc5c(c43)NC[C@@H](C)O5)c2=O)cc1`: the half-maximal inhibitory concentration (IC50) in series [6] is greater than 1000 nM; in series [7], 2.4 nM. This compound gave an inhibition constant (Ki) in series [3] of 0.3 nM.

`Cc1ccc(-n2cnc3c(sc4ncc5sc(=S)[nH]c5c43)c2=O)cc1`: the IC50 in series [7] came out at 541 nM. For the same compound, in [3], the affinity, expressed as Ki, was 1000 nM. Moreover, in [5], the Activity is -10%.

In [3], `O=c1c2sc3ncc4cn[nH]c4c3c2ncn1-c1ccc(Cl)cc1` gave an inhibition constant (Ki) of 19.6 nM. Also, in [5], the Activity is -12%.

Take `C[C@H]1CNc2c(cnc3sc4c(=O)n(-c5ccc(Cl)cc5)cnc4c23)O1`: the IC50 in series [6] was greater than 1000 nM. For the same compound, in the series on Rattus norvegicus [8], the Activity is on record as 7.7 g. Further, the Tmax in series [1] was 2 h. In series [2], this compound registered an AUC(0-t) at 6 h of 8.43 µM·h. The same compound yielded an MPE with Rattus norvegicus [10] of 44%. For the same compound, the Ki in series [3] was determined as 1.5 nM. In series [4], this compound gave a maximum concentration (Cmax) of 2050 nM.

Take `COc1ccc(-n2cnc3c(sc4ncc5cc[nH]c5c43)c2=O)cc1`: the concentration for half-maximal inhibition (IC50) in [6] was greater than 10000 nM. Further, the Activity in the series on Rattus norvegicus [8] is 6.6 g. Besides, the time of peak concentration (Tmax) in series [1] is 2 h. The area under the curve AUC(0-t) at 6 h in series [2] came to 1.32 µM·h. In the series on Rattus norvegicus [10], this compound returned an MPE of 39%. In series [3], this compound gave a Ki of 28.6 nM. This compound had a Cmax in series [4] of 394 nM.

`C[C@@H]1CNc2c(cnc3sc4c(=O)n(-c5ccc(Cl)cc5)cnc4c23)O1`: the 50% inhibitory concentration (IC50) in [6] was greater than 1000 nM. The Activity in the series on Rattus norvegicus [8] worked out at 10.9 g. Besides, the Tmax in [1] was 0.5 h. Also, in series [2], the area under the curve AUC(0-t) at 6 h was determined as 5.19 µM·h. For the same compound, the MPE with Rattus norvegicus [10] is 68%. In series [3], this compound displayed a Ki of 0.2 nM. In addition, in series [4], the Cmax turned out to be 1420 nM.
